{
  "source": "patent US20220213198A1",
  "about": "“METHOD OF TREATMENT” (The Council of the Queensland Institute of Medical Research, priority 2019, published 2022)",
  "key": {"[1]": {"molecular_target": "T1, surface MR1 on mouse tumor cell lines (Mus musculus, UniProt Q8HWB0)", "T1 construct": "endogenous in cells", "T1 sequence (Q8HWB0 19-341)": "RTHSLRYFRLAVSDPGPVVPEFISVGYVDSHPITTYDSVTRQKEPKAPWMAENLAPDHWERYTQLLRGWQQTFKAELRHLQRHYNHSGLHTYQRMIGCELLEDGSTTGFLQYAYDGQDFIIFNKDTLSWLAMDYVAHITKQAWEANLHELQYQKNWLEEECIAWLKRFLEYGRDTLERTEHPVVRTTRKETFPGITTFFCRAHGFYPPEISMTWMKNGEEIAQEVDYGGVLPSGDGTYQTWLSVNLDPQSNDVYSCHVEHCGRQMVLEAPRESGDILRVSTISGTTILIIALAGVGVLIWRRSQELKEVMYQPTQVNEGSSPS", "T1 sequence (P01887 21-119 partner)": "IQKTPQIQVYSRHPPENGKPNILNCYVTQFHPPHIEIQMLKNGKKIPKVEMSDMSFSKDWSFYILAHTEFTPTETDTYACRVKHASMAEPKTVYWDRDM", "assay": "MR1 surface expression on mouse tumor cell lines by flow cytometry", "type": "cell-based", "settings": "for MR1 cell surface expression: 100 nM, 4 hours", "description": "FIG. 2. Up-regulation of MR1 on B16F10 cells increases lung metastases that is dependent on MAIT cells. (A) The schematic and timeline of expanding MAIT cells from splenocytes derived from C57BL/6 WT mice with IL-2 and 5-OP-RU, for sorting and adoptive transfer into tumor-bearing mice. (B, C) Groups of WT or MR1^−/− or Rag2cγ^−/− mice (n=5-6/group) were injected i.v. with (B) 1×10^5 or (C) 1×10^4 B16F10 melanoma cells. In some groups, sorted MAIT or T conventional cells (cT) (non-MAIT αβ^+ T cells) (2×10^5 cells/mouse) from C57BL/6 (B) WT or (C) TCRδ^−/− mice were i.v. injected into the indicated groups of mice one day before tumor inoculation. (C) One group of mice received i.v injection of media alone as a control. (B, C) On day 14 relative to tumor cell inoculation, lungs were harvested and the metastatic burden was quantified by counting colonies on the lung surface. Data presented as mean±SEM. (D) B16F10 or LWT1 melanoma cells were stimulated in vitro with DMSO or 5-OP-RU (100 nM) for 4 hours before cell surface MR1 expression was determined by flow cytometry. Groups of C57BL/6 WT or MR1^−/− mice (n=5-6/group) were i.v. injected with (E) 1×10^5 B16F10 or (F) 5×10^5 LWT1 cells melanoma cells pulsed with DMSO or 5-OP-RU (100 nM, 4 hours). Fourteen days later relative to tumor cell inoculation, lungs were harvested and the metastatic burden was quantified by counting colonies on the lung surface. Data presented as mean±SEM. Experiments performed once for (B, C, F) and three times for (D, E) with one representative experiment shown. Significant differences between groups as indicated by crossbars were determined using a one-way ANOVA followed by Tukey's post-hoc test (B, E, F), *p<0.05, **p<0.01, ****p<0.0001\nNaïve or tumor-bearing lung single-cell suspensions were generated as previously described (Blake et al., 2016) and incubated with anti-CD16/32 (2.4G2) to block Fc receptors on ice prior to surface staining with the antibodies. The following antibodies were used for FACs analysis: anti-CD45.2 (104), anti-TCRβ (H57-597), anti-NK1.1 (PK136), anti-NKp46 (29A1.4), anti-CD45R (B220, RA3-6B2), anti-F4/80 (BM8), anti-CD69 (H1.2F3) (all from BioLegend, eBioscience), and MR1 tetramers. For intracellular cytokine staining, cells were surface stained as described above and then fixed and permeabilized with a cytofix/cytoperm kit (BD Biosciences) followed by staining with anti-IFNγ (XMG1.2), anti-TNF (MP6-XT22), anti-IL-17A (TC11-18H10.1) or isotype (eBio299Arm) antibody (all from BioLegend). All data were collected on a Fortessa 4 flow cytometer (BD Biosciences) and analyzed with FlowJo v10 software (TreeStar, Inc.).\nMR1 mRNA transcripts are present in different tissues and cell lines from mice and humans. […] In contrast, whether mouse tumor cell lines express MR1 has not previously been examined. […] Basally, the level of MR1 was almost undetectable on the surface of all tumor cell lines examined (FIG. 2D). […] The kinetics of MR1 upregulation on B16F10 cells was similar to what was previously reported for human C1R cells (B-cell lymphoblastoid cell line) (McWilliam et al., 2016). […] Next, the impact of up-regulation of MR1 on B16F10 or LWT1 prior to i.v injection to WT or MR1−/− mice on the number of lung metastases was assessed."}, "MAIT cells": {"test_system": "MAIT cells", "assay": "Ex vivo MAIT cell activation and cytokine profile in tumor-bearing lungs", "set-up": "species or system mouse", "settings": "lungs of mice injected with treated vs DMSO-treated B16F10, day 5", "description": "FIG. 4. Upregulation of MR1 on B16F10 activates MAIT cells to suppress NK cell effector function through IL-17. (A) Schematic to analyze MAIT or NK cell effector function in the lungs of C57BL/6 WT or MR1^−/− mice injected with 5-OP-RU- or DMSO-stimulated B16F10 melanoma cells. On day 5 relative to tumor inoculation, lungs were harvested and stimulated with PMA/ionomycin plus protein transport inhibitors for 4 hours and MAIT or NK cell function was assessed by flow cytometry. (B) The proportion of CD69^+ MAIT cells amongst total MAIT cells (B220^− F4/80^− MR1-5-OP-RU tetramer^+ TCRβ^+) in naïve or tumor-bearing lungs. Data presented as mean±SEM. (C) Representative dot plot of IL-17 expression by MAIT cells. The (D) proportion of IL-17^+ MAIT cells amongst total MAIT cells in the lungs of naïve and tumor-bearing mice as indicated. Data presented as mean±SEM. (E) Representative dot plot of TNF expression by MAIT cells. The (F) proportion of TNF MAIT cells and (G) IFNγ^+ MAIT cells amongst total MAIT cells in the lungs of naïve and tumor-bearing mice as indicated. (H, I) On day 5 relative to tumor inoculation, lungs were harvested (n=6/group) and stimulated with PMA/ionomycin plus protein transport inhibitors for 3 hours and NK cell function was assessed by flow cytometry. The proportion of IFNγ^+ NK cells and CD107a^+ NK cells amongst total NK cells (NKp46^+ NK1.1^+ TCRβ^− CD45.2^+) in tumor-bearing C57BL/6 WT or IL-17^−/− mice. Data presented as mean±SEM. (J) Groups of WT or MR1^−/− mice (n=4-6/group) were injected i.v. with 1×10^5 B16F10 melanoma cells. In some groups, sorted MAIT cells (2×10^5 cells/mouse) from C57BL/6 WT or IL-17A^−/− mice were i.v. injected into the indicated groups of mice one day before tumor inoculation. On day 14 relative to tumor cell inoculation, lungs were harvested and the metastatic burden was quantified by counting colonies on the lung surface. […] Significant differences between groups as indicated by crossbars were determined using a one-way ANOVA followed by Tukey's post-hoc test (B, D, F, J), or a Mann-Whitney test (H, I), *p<0.05, **p<0.01, ***p<0.001, ****p<0.0001.\nNaïve or tumor-bearing lung single-cell suspensions were generated as previously described (Blake et al., 2016) and incubated with anti-CD16/32 (2.4G2) to block Fc receptors on ice prior to surface staining with the antibodies. […] All data were collected on a Fortessa 4 flow cytometer (BD Biosciences) and analyzed with FlowJo v10 software (TreeStar, Inc.).\nSingle cell suspensions from lungs of the indicated groups were incubated in a 96-well U-bottom plate in complete RPMI 1640 media. […] Briefly, anti-CD107a (1D4B, BioLegend) antibody was added to single cell suspension during the stimulation period before these cells were surface stained and analyzed by flow cytometry."}},
  "data": [
    {"smiles": "CC(=O)C=Nc1c(NC[C@H](O)[C@H](O)[C@H](O)CO)[nH]c(=O)[nH]c1=O", "note": "[5-OP-RU]", "values": [
      {"measurement": "lowest ligand concentration that upregulated MR1", "setting": "[1]; B16F10, dose titration", "result": 10, "unit": "nM"},
      {"measurement": "MR1 cell surface expression", "setting": "[1]; B16F10 melanoma cells", "result": "substantially upregulated"},
      {"measurement": "MR1 cell surface expression", "setting": "[1]; LWT1 melanoma cells", "result": "substantially upregulated"},
      {"measurement": "MR1 cell surface expression", "setting": "[1]; MC38 parental or OVA, HcMel3, HcMel12, SM1WT1, MCA1956 cells", "result": "upregulated to a varying extent"},
      {"measurement": "MR1 cell surface expression", "setting": "[1]; RM-1, 4T1.2 or 3LL carcinoma cells", "result": "not upregulated"},
      {"measurement": "proportion of MAIT cells producing IFNγ", "setting": "MAIT cells", "result": "did not change"},
      {"measurement": "proportion of MAIT cells that expressed CD69", "setting": "MAIT cells", "result": "increased proportion"},
      {"measurement": "proportion of MAIT cells that expressed IL-17A", "setting": "MAIT cells", "result": "increased proportion"},
      {"measurement": "proportion of MAIT cells that expressed TNF", "setting": "MAIT cells", "result": "increased proportion"}
    ]}
  ]
}
